Measured values published in US4088772A, “Methanodibenzocycloheptapyrroles” (E. I. Du Pont de Nemours and Company, priority 1975, dated 1978).
Structures can show the parent of a compound that is named as a salt. Where two headings read alike, the source gives them in different places.

Legend:
in vivo = settings: mouse, in vivo, po
Description: (§1) Groups of five Carworth CF1 S female mice, 16-20 g each, were fasted 16-22 hours before use. The mice were put in opaque plastic "shoe-box" cages 15-30 min. before injection, and then treated orally with 4, 12, 36, 108 and 324 mg/kg of the compound to be tested as a 13 mg/ml solution in 1% aqueous distilled water solution of methylcellulose (Methocel®). Each dose was given in a standard volume of 0.45 ml. Observations were made at 0.5, 2 and 24 hours after dosing. ED50 values were calculated for each parameter including death (LD50). The ED50 and LD50 values are the doses at which 50% of the naimals would be expected to respond.
(§2) The mouse is placed on a stainless steel wire mesh screen (8 × 12 inches, 3 mesh per inch, 1/4 inch mesh openings) "shoe-box" lid (1 inch high) and is observed for normal activities, such as nose movements, head movements with apparent visual examination of the area, and/or walking around on the screen. Absence of or marked depression of these activities for 5 seconds constitutes loss of exploratory activity.
(§3) The mouse is picked up by the tail and placed on the screen with its head facing the observer. Bilateral eyelid closure of 50% or more two seconds after placement is considered ptosis.
(§4) The mouse is placed with its front paws on the edge of a stainless steel "shoe-box" cover, 1 inch high, covered with adhesive tape. Failure to remove both paws from the cover's edge within 5 seconds constitutes catatonia.
(§5) The observer gently strokes the abdominal musculature of the mouse with thumb and forefinger. Flaccidity (or rarely, tenseness) is recorded.
(§6) The mouse is gently swung by the tail toward a horizontal 12 gauge wire tautly stretched 25 cm above the bench. After the mouse grasps the wire with its forepaws, its posterior end is held directly below the wire. A normal mouse grasps the wire with its forepaws and immediately lifts its hind limbs to the wire. Failure to grasp the wire with the forepaws in both trials constitutes loss of the grip reflex; failure to lift the hind limbs to grasp the wire with at least one hind paw within 5 seconds constitutes loss of the lift reflex.
(§7) The mouse is placed on the bar 10-20 cm horizontally and 9 cm vertically from a Galton whistle adjusted for 13 kc (5 mm on the whistle scale) and is subjected to several short bursts of sound.
(§8) An effective tranquilizer should induce little or no tremor response. […] Tremors include fine or coarse and intermittent or continuous tremors.

female white mice = assay: animal or person; settings: oral; for ED50: Mus musculus, po; for ED50 / Catatonia ED50 / Exploratory Loss Visual ED50 / Muscle Tone ED50 / Ptosis ED50 / Reflexes Grip ED50 / Reflexes Lift ED50 / Reflexes Pinna ED50 / Tremors ED50: mice; for LD50 / Catatonia ED50 / Exploratory Loss Visual ED50 / Muscle Tone ED50 / Ptosis ED50 / Reflexes Grip ED50 / Reflexes Lift ED50 / Reflexes Pinna ED50 / Tremors ED50: Table 1; for LD50: 24-hour value
Description: as §1, §2, §3, §4, §5, §6, §7, §8

[1] = tested on: phenylquinone-induced writhing; assay: Phenylquinone writhing test (analgesia); type: in vivo, mouse (Carworth CF1 S female); settings: Table 1; oral, mice
From the text: This mouse test is predictive of analgesic response in humans. [E. Siegmund, R. Cadmus and G. Lee, Proc. Soc.
ED50 values were obtained graphically from the data.

[2] = read-out: Catatonia ED50, Table III
[3] = read-out: Exploratory Loss Visual ED50, Table III
[4] = read-out: Muscle Tone ED50, Table III
[5] = read-out: Ptosis ED50, Table III
[6] = read-out: Reflexes Grip ED50, Table III
[7] = read-out: Reflexes Lift ED50, Table III
[8] = read-out: Reflexes Pinna ED50, Table III

Molecule	LD50 at 24 h (in vivo) [mg/kg]	ED50 (female white mice; [2]) [mg/kg]	ED50 (female white mice; [3]) [mg/kg]	ED50 (female white mice; [4]) [mg/kg]	ED50 (female white mice; [5]) [mg/kg]	ED50 (female white mice; [6]) [mg/kg]	ED50 (female white mice; [7]) [mg/kg]	ED50 (female white mice; [8]) [mg/kg]	LD50 (female white mice) [mg/kg]	Catatonia ED50 (female white mice) [mg/kg]	Exploratory Loss Visual ED50 (female white mice) [mg/kg]	Muscle Tone ED50 (female white mice) [mg/kg]	Ptosis ED50 (female white mice) [mg/kg]	Reflexes Grip ED50 (female white mice) [mg/kg]	Reflexes Lift ED50 (female white mice) [mg/kg]	Reflexes Pinna ED50 (female white mice) [mg/kg]	Tremors ED50 (female white mice) [mg/kg]	also measured
C[N+]1([O-])C[C@@H]2c3ccccc3[C@@H]3C[C@@]2(C1)c1ccccc13 (relative stereo) [Methyl-N-oxide]	> 324																	ED50 (in vivo): 36 mg/kg; ED50 (female white mice; read-out: Catatonia ED50, Table 1): 60 mg/kg; ED50 (female white mice; read-out: Exploratory Loss Visual ED50, Table 1): 60 mg/kg; ED50 (female white mice; read-out: Muscle Tone ED50, Table 1): 100 mg/kg; ED50 (female white mice; read-out: Ptosis ED50, Table 1): 36 mg/kg; ED50 (female white mice; read-out: Reflexes Grip ED50, Table 1): 200 mg/kg; ED50 (female white mice; read-out: Reflexes Lift ED50, Table 1): 36 mg/kg; ED50 (female white mice; read-out: Reflexes Pinna ED50, Table 1): 60 mg/kg
CN1CC2c3cc(Cl)ccc3C3CC2(C1)c1ccccc13.Cl (centres unmarked) [Example 80, 11-Chloro-2-methyl-2,3,8,12b-tetrahydro-1H-3a,8-methanodibenzo[3,4:6,7]cyclohepta[1,2-c]pyrrole Hydrochloride]	200	100	7	20	20	60	20	20										
c1ccc2c(c1)C1CC3(CN(CC4CCCC4)CC23)c2ccccc21 (single isomer, unassigned; (+)) [(+)-Cyclopentylmetnyl, 2-Cyclopentylmethyl-2,3,8,12b-tetrahydro-trans-1H,-3a,8-methanodibenzo[3,4:6,7]cyclohepta[1,2-c]pyrrole]									> 324	36	36	60	20	200	60	20	> 324	Phenylquinone Analgesia ED50 [1]: 24 mg/kg
Nitro-2-methyl-2,3,8,12b-tetrahydro-1H-3a,8-methanodibenzo[3,4:6,7]cyclohepta[1,2-c]pyrrole Hydrochloride [Example 57]									200	> 324	20	60	12	> 324	> 324	12	100	Phenylquinone Analgesia ED50 [1]: 5 mg/kg
Cc1ccc2c(c1)[C@]13C[C@H]2c2ccccc2[C@H]1CN(CC1CCCC1)C3 (relative stereo) [Example 89, 5-Methyl-2-cyclopentylmethyl-2,3,8,12b-tetrahydro-1H-3a,8-methanodibenzo[3,4:6,7]cyclohepta[1,2-c]pyrrole]	> 81	50	9	50	15	< 81	25	15										
5- and 11-Chloro-2-cyclohexylmethyl-2,3,8,12b-tetrahydro-1H-3a,8-methanodibenzo[3,4:6,7]cyclohepta[1,2-c]pyrrole [Example 44]									> 324	19	17	12	< 3	> 324	36	11	> 324	
5- and 11-Chloro-2-methyl-2,3,8,12b-tetrahydro-1H- 3a,8-methanodibenzo[3,4:6,7]cyclohepta[1,2-c]pyrrole [Example 43]									200	100	7	20	20	60	20	20	36	
O=[N+]([O-])c1ccc2c(c1)[C@]13C[C@H]2c2ccccc2[C@H]1CN(CC1CCCC1)C3 (relative stereo) [Example 63, 5-Nitro-2-cyclopentylmethyl-2,3,8,12b-tetrahydro-1H-3a,8-methanodibenzo[3,4:6,7]cyclohepta[1,2-c]pyrrole Hydrochloride]	> 324	200	12	36	7	> 324	100	20										
